Results from the NIST ThermoML archive (doi:10.1016/j.fluid.2005.07.017).
Numbers after ± are expanded uncertainties.

Experiment: xn = mol fraction of the nth substance listed
Details: Liquid, Vibrating tube method

c1ccsc1 [thiophene] + O=C=O
Details | mass density [kg/m3]
352.85 K, 14021 kPa, x2 = 0.3818 | 956.99 ± 0.43
352.85 K, 15021 kPa, x2 = 0.3818 | 958.98 ± 0.43
352.85 K, 16002 kPa, x2 = 0.3818 | 960.92 ± 0.43
352.85 K, 17007 kPa, x2 = 0.3818 | 962.89 ± 0.43
352.85 K, 18002 kPa, x2 = 0.3818 | 964.77 ± 0.43
352.85 K, 19018 kPa, x2 = 0.3818 | 966.66 ± 0.43
353.15 K, 101 kPa, x2 = 0 | 989.76 ± 0.44
362.38 K, 5067 kPa, x2 = 0.199 | 959.54 ± 0.43
362.38 K, 6020 kPa, x2 = 0.199 | 961.18 ± 0.43
362.38 K, 7006 kPa, x2 = 0.199 | 962.87 ± 0.43
362.38 K, 8052 kPa, x2 = 0.199 | 964.61 ± 0.44
362.38 K, 9004 kPa, x2 = 0.199 | 966.16 ± 0.44
362.38 K, 9993 kPa, x2 = 0.199 | 967.76 ± 0.44
362.38 K, 11055 kPa, x2 = 0.199 | 969.42 ± 0.43
362.38 K, 12043 kPa, x2 = 0.199 | 970.93 ± 0.43
362.38 K, 13005 kPa, x2 = 0.199 | 972.44 ± 0.43
362.38 K, 14008 kPa, x2 = 0.199 | 973.98 ± 0.43
362.38 K, 14980 kPa, x2 = 0.199 | 975.41 ± 0.43
362.38 K, 16011 kPa, x2 = 0.199 | 976.94 ± 0.43
362.38 K, 17005 kPa, x2 = 0.199 | 978.39 ± 0.43
362.38 K, 18009 kPa, x2 = 0.199 | 979.82 ± 0.43
362.38 K, 19011 kPa, x2 = 0.199 | 981.22 ± 0.43
362.38 K, 20040 kPa, x2 = 0.199 | 982.7 ± 0.43
362.51 K, 1007 kPa, x2 = 0 | 979.8 ± 0.44
362.51 K, 2022 kPa, x2 = 0 | 981.13 ± 0.44
362.51 K, 3029 kPa, x2 = 0 | 982.49 ± 0.44
362.51 K, 4004 kPa, x2 = 0 | 983.74 ± 0.44
362.51 K, 5006 kPa, x2 = 0 | 985.01 ± 0.44
362.51 K, 6003 kPa, x2 = 0 | 986.27 ± 0.43
362.51 K, 6999 kPa, x2 = 0 | 987.5 ± 0.43
362.51 K, 7993 kPa, x2 = 0 | 988.73 ± 0.43
362.51 K, 9007 kPa, x2 = 0 | 989.99 ± 0.43
362.51 K, 9993 kPa, x2 = 0 | 991.16 ± 0.43
362.51 K, 10997 kPa, x2 = 0 | 992.36 ± 0.43
362.51 K, 11993 kPa, x2 = 0 | 993.56 ± 0.43
362.51 K, 12838 kPa, x2 = 0 | 994.53 ± 0.43
362.51 K, 14038 kPa, x2 = 0 | 995.94 ± 0.43
362.51 K, 15044 kPa, x2 = 0 | 997.1 ± 0.43
362.51 K, 16029 kPa, x2 = 0 | 998.18 ± 0.43
362.51 K, 17006 kPa, x2 = 0 | 999.27 ± 0.43
362.51 K, 18016 kPa, x2 = 0 | 1000.4 ± 0.43
362.51 K, 18987 kPa, x2 = 0 | 1001.47 ± 0.43
362.73 K, 8081 kPa, x2 = 0.3818 | 925.8 ± 0.44
362.73 K, 9009 kPa, x2 = 0.3818 | 928.21 ± 0.43
362.73 K, 10010 kPa, x2 = 0.3818 | 930.72 ± 0.43
362.73 K, 11009 kPa, x2 = 0.3818 | 933.15 ± 0.43
362.73 K, 11996 kPa, x2 = 0.3818 | 935.49 ± 0.43
362.73 K, 13008 kPa, x2 = 0.3818 | 937.87 ± 0.43
362.73 K, 14001 kPa, x2 = 0.3818 | 940.11 ± 0.43
362.73 K, 15006 kPa, x2 = 0.3818 | 942.32 ± 0.43
362.73 K, 16002 kPa, x2 = 0.3818 | 944.47 ± 0.43
362.73 K, 17016 kPa, x2 = 0.3818 | 946.62 ± 0.43
362.73 K, 18023 kPa, x2 = 0.3818 | 948.72 ± 0.43
362.73 K, 19014 kPa, x2 = 0.3818 | 950.73 ± 0.43
